One test deals with Bip and GRP94 mRNA. Description: qRT-PCR of Bip and GRP94 in Tm-treated INS-1 cells. Particulars: Tm 0.1 μg/mL, 9c 20 μM, FIG. 7A, B. Format: cell-based, rat. The method, then: We then asked whether 9c affects the activation of ATF6 in β cells under ER stress. Activated ATF6 acts as a homodimer or as an ATF6-XBP1s heterodimer to control the up-regulation of select UPR target genes including the chaperone proteins BiP and GRP94. We evaluated the effect of 9c on the mRNA levels of chaperones Bip and GRP94 in β cells in the presence of Tm.
(§1) INS-1 cells were seeded at 4×10^5 cells/well in 6-well plates and treated with compounds for the indicated times. Total RNA was extracted using TRIzol reagent (Invitrogen, Carlsbad, Calif.) according to the manufacturer's protocol, and 2 μg of total RNA was reverse transcribed using a Superscript kit (Invitrogen). Real-time PCR was performed in 96-well format using SYBR Select Master Mix (Applied Biosystems, Foster City, Calif.) with an ABI 7500 PCR system (Applied Biosystems). The primer sequences used are shown in U.S. Ser. No. 62/542,408, Aug. 8, […].
A general note: Real-time PCR tracks product formation cycle by cycle.

Test [1] relates to INS-1 cells. Kind of test: Glucose-stimulated insulin secretion in Tm-treated INS-1 cells. Conditions: Tm 0.1 μg/mL, 24 h, 25 mM glucose, FIG. 5E. The test is classed as cell-based, rat. The text has this: ER stress also impairs the most important function of β cells: the biosynthesis and secretion of insulin. Multiple steps of insulin synthesis and secretion are impaired under ER stress; they include insulin gene transcription, insulin mRNA stability, protein translation, and the insulin protein secretory process. First, we examined whether compound 9c could rescue Tm-suppressed mRNA levels of insulin genes. […] Second, we examined whether compound 9c affects the expression of β cell transcription factors PDX1 and MafA, which control β cell identity and the expression of insulin genes. Chronic exposure to supraphysiologic concentrations of glucose and its associated ER stress cause the down-regulation of expression of PDX1 and MafA. Consistent with this notion, Tm decreased the levels of PDX1 and MafA mRNA expression levels in INS-1 cells. […] Next, we explored whether compound 9c re-establishes Tm-impaired glucose-stimulated insulin secretion (GSIS).
INS-1 or primary human islet cells were plated in 96-well plates. […] The secreted insulin was measured with insulin ELISA kits (for mouse insulin from Millipore and for human insulin from LifeTech). Cells were lysed with RIPA buffer (50 mM Tris HCl pH 7.4, 1% NP-40, 0.25% sodium deoxycholate, 150 mM NaCl), and total cellular protein was determined with a Bradford protein assay. […]

The test system of test [2] is βTC6 cells. Description: βTC6 cell viability after Tm treatment (MTT). The test is classed as cell-based. Particulars: Tm 0.25 μg/mL, 72 h, FIG. 3C. The text has this: (§2) To rule out the possibility of an ATP-specific (rather than viability) effect of the compounds, we used the MTT assay, which measures the activity of NAD(P)H-dependent cellular oxidoreductase enzymes, as an orthogonal method to measure cell viability. […] To confirm that the protective effect of 9c on β cells is not INS-1 cell-specific, another β cell line, βTC6, was used. […] To determine whether the protective effect of 9c on β cells is specific to Tm-induced stress, we used another ER stressor, BFA, which inhibits a key guanine nucleotide exchange factor essential for the transport of proteins from the ER to the Golgi, to treat INS-1 cells.
(§3) INS-1 cells or βTC6 cells were seeded at 3×10^3 cells/well in a 384-well plate and treated with compounds at the indicated concentrations. After 3 d treatment, the medium was aspirated and 10 μl of MTT reagent (Cayman Chemical, MI, USA, prepared according to manufacturer's instruction) to each well was added and mixed gently for one minute on an orbital shaker. The cells were then incubated for three hours at 37° C. in a CO2 incubator. After incubation, add 100 μl of crystal dissolving solution to each well, and incubate for 4 hours in a 37° C. CO2 incubator. Viability will be measured for the absorbance to each sample at 570 nm using EnVision multilabel plate reader (PerkinElmer, MA, USA).

For test [3], the system named is INS-1 cells. Description: INS-1 cell viability after BFA treatment (CellTiter-Glo). Particulars: BFA 0.2 μg/mL, 9c 20 μM, 72 h, FIG. 3D. Format: cell-based, rat.
From the text: as §2
(§4) INS-1 cells or βTC6 cells were seeded at 3×10^3 cells/well in a 384-well plate and treated with compounds at the indicated concentrations. After 3 d treatment, the medium was aspirated and 20 μL/well of CellTiter-Glo reagent (Promega, WI, USA) was added for the detection of intracellular ATP levels. Cell viability was measured with an EnVision multilabel plate reader (PerkinElmer, MA, USA).
A general note: ATP-based viability assays read luminescence as a measure of living cells.

In test [4] the test system is INS-1 cells. Description: MTT viability assay, INS-1 cells treated with Tm. Particulars: Tm 0.1 μg/mL, 72 h, FIG. 3A. Format: cell-based, rat.
From the text: as §2, §3
(In general: Tetrazolium assays rely on reduction of a dye to a coloured formazan, in cell work by metabolically active cells.)

The next test deals with XBP1s mRNA. Description: XBP1 splicing (qRT-PCR and RT-PCR) in Tm-treated INS-1 cells. The test is classed as cell-based, rat. Particulars: Tm 0.1 μg/mL, 9c 20 μM.
From the text: Next, we investigated the mechanism by which 9c protects β cells against ER stress. In response to ER stress, all three branches of the UPR, IRE1α, PERK and ATF6, are activated to either restore cellular homeostasis/survival or lead to cell death, depending on the severity of ER stress. First, we asked whether 9c affects the activation of IRE1α in β cells under ER stress. Activated IRE1α cleaves X-box binding protein-1 (XBP1) mRNA to generate a spliced form (XBP1s) that is translated into a potent transcription factor which controls expression of UPR genes encoding factors involved in ER protein folding and degradation. We therefore determined the effect of 9c on IRE1α-mediated XBP1 splicing in INS-1 cells in the presence of Tm.
as §1

For test [5], the system named is βTC6 cells. Description: βTC6 cell viability after Tm treatment (CellTiter-Glo). The test is classed as cell-based. Conditions: Tm 0.25 μg/mL, 72 h, FIG. 3B.
From the text: as §2, §4

Turning to `COc1ccc(CNc2nc(N3CCCCC3CO)nc3ccccc23)cc1` (racemic) [Compound 9c, (1-(4-((4-methoxybenzyl)amino)quinazolin-2-yl)piperidin-2-yl)methanol], in the test on Bip and GRP94 mRNA, the “Bip and GRP94 mRNA levels” value is listed as “almost completely suppressed”. The “glucose-stimulated insulin secretion (GSIS)” value with INS-1 cells [1] is “significantly rescued the GSIS”. In the test with βTC6 cells [2], the “viability of βTC6 cells (MTT, NAD(P)H-dependent oxidoreductase activity)” value is “rescued the viability of βTC6 cells in a dose-dependent manner”. For the same molecule, the “viability of INS-1 cells against BFA” value with INS-1 cells [3] is on record as “protected INS-1 cells against BFA”. Further, the “viability of INS-1 cells (MTT)” value in the test with INS-1 cells [4] is on record as “increase in viability of INS-1 cells”. Further, the “XBP1s mRNA (qRT-PCR)” value in the test with XBP1s mRNA (FIG. 6A) was “suppressed”. Moreover, in the test on XBP1s mRNA (FIG. 6B), the “XBP1s mRNA (RT-PCR, electrophoretic separation of spliced and unspliced forms)” value was “inhibits the Tm-induced generation of XBP1s mRNA”. In the test with βTC6 cells [5], the “viability of βTC6 cells (intracellular ATP level)” value is listed as “rescued the viability of βTC6 cells in a dose-dependent manner”.

Source of the values: US10815219B2, “2,4-diaminoquinazoline derivatives for inhibiting endoplasmic reticulum (ER) stress” (The Board of Regents of the University of Oklahoma, priority 2017, dated 2020).
